Source: US7691816B2, “Pharmaceutical compositions” (Renovo Ltd., priority 2005, dated 2010)

Test: Localised pain and erythema associated with intradermal injection of formulations
Type: in vivo, human
Description: A study was conducted to evaluate localised pain and erythema associated with intradermal injection of medicaments manufactured in accordance with the invention and the pain and erythema associated with control injections of prior art compositions.
Experimental injectable solutions were prepared as described above.
Briefly, a volume of 100 μL of each formulation described above was injected intradermally into the inner aspect of the upper arms of a volunteer. In addition to the DS11 control described above, a solution of the known local anaesthetic lignocaine was also used as a further control. The pain on injection and erythema were categorised by the volunteer and a clinician.
Both the volunteer and the clinician undertook these evaluations. The extent of pain or erythema associated with the different formulations used was rated based upon the following categories (listed in ascending severity): […]

[1] = Volunteer 1, 100 μL intradermal, inner aspect of upper arm
[2] = Volunteer 2, 100 μL intradermal, inner aspect of upper arm

Row | Compound | Erythema (Table 4, summary of Table 3) | Pain (Table 4, summary of Table 3) | Erythema [1] | Pain [1] | Erythema [2] | Pain [2] | Pain (in vivo)
1 | CCN(CC)CC(=O)Nc1c(C)cccc1C [Lignocaine, lignocaine] | Marked | Marked | Marked | Marked | Marked | Marked | –
2 | Glucose | – | – | – | – | – | – | None
